In patent publication US5324730A, “Phenoxyphosphoryloxymethyl cyclobutyl purines” (Nippon Kayaku Kabushiki Kaisha, priority 1990, dated 1994):
Converted amounts (≈) assume the structure as drawn.

Columns and labels:
[1] = Oral absorbability: plasma concentration of Compound 1a (B^1 = 9-guanyl) in mice after oral or intravenous administration (Method 4); type: in vivo; conditions: Compound 1a (B^1 = 9-guanyl) in plasma, male CDF1 mice; for AUC, intravenous injection / Tmax, intravenous injection: 75 μM/kg intravenous; for AUC, oral administration / Tmax, oral administration: 75 μM/kg oral
Procedure: Oral absorbability of compounds of this invention were tested according to the following method.
Male CDF1 mice (6-8 weeks in age) (Japan Charles Liver Co.) were used. Each substance to be tested was dissolved into physiological salt solution, and its 75 μM/kg dosage (0.1-0.5 ml/10 g dosage) was administered orally or intravenously. Ten minutes, thirty minutes, one hour and 3 hours after the administration, blood was taken from 2-3 heads of mice by means of an injection tube previously treated with heparin, and the blood was centrifuged at 3,000 rpm for 10 minutes to obtain a plasma. To 200 μl of the plasma was added 9-[2-hydroxy-3-hydroxymethylcyclobutan-1-yl]-guanine (2 μg/10 μl […]) as an internal standard. After diluting it with 4 ml of water, it was washed with 2 ml of water by the use of Ceppack C18 Cartridge (Millipore Waters Co.). It was eluted with 5 ml of methanol, concentrated to dryness, re-dissolved into 200 μl of water, and then subjected to HPLC to measure the concentration of 9-((1R,2R,3S)-2,3-bis(hydroxymethyl)-1cyclobutyl) guanine (Compound 1a, wherein B^1 =9-guanyl), from which maximum concentration (Cmax), time of maximum concentration (Tmax) and the area under the concentration curve (AUC) were determined.
Column: Cosmosil 5C18-P (Nacalai Tesque, 250 mm×4.6 mm, i.d.)
Solvent: 0.1. M citric acid (pH 4): acetonitrile:methanol=50:2:1

hepatitis B virus (HBV) = assay: Antiviral activity against HBV, inhibition of HBV DNA synthesis in HB611 cells (Method 3); type: cell-based; conditions: 360 h, 50% inhibition of HBV DNA synthesis, 15 days, read-out: ID50 HBV
Procedure: Antiviral activity against hepatitis B virus (HBV) which is a DNA virus was tested by the following method.
The test was done by using a cell line, HB611, that was established by transfection and continuously produces HBV like particles [Proc. Natl. Acad. Sci. USA, 84, 444-449, 1987]. HB611 cells were maintained in Dulbecco's modified Eagle medium (Gibco) supplemented with 10% fetal bovine serum (Gibco), 100 μg/ml of streptomycin, 100 IU ml of benzyl penicillin (Gibco) and 200 μg/ml of geneticin (Gibco) at 37° C. in 5% CO2 -95% air.
The cells were seeded in 24-well plate (Corning) at a density of 3×10^4 cells/well, using 1.0 ml of the medium. After 2 days of incubation, the medium was replaced with the same medium containing the test compound. The cells were incubated for a further 15 days, during which time the medium containing the drug was exchanged every three days. The cells were then harvested and cellular DNA was prepared [Virology, 169, 213-216, 1989], and digested with restriction enzyme Hind III (Takara Shuzo Co., Ltd.). An aliquot (2-3 μg) was electrophoresed in 1.5% agarose gel, followed by blotting onto a nylon membrane Hybond-N^+ according to Southern [J. Mol. Biol., 98, 503-517, 1975]. The filter was hybridized to random primed 32p labeled HBV DNA probe, and washed twice with 2× standard saline citrate containing 0.1% SDS at 65° C. for 30 min. It was then autoradiographed, and the results were analyzed using a densitometric analyzer (Shimadzu, Chromatoscana S930).
To quantitatively evaluate the inhibitory activity of the compounds, we measured the band areas S, D1, D2 (S, D1 and D2 represent intracellular free HBV DNA derived from replicative intermediates) and I (represents chromosomally integrated HBV DNA) by densitometric analyzer, and calculated the inhibition percentage as follows: [formula]
In table 1, antiviral activity is represented by 50% inhibition doses (ID50) on HBV DNA synthesis.

[2] = system: human cytomegalo-virus (HCMV); assay: Antiviral activity against HCMV, plaque reduction in human embryonic fibroblasts (Method 2); type: cell-based; conditions: Human betaherpesvirus 5, Fibroblast, plaque number reduced to 50%, 9 or 10 days
Procedure: Antiviral activity against human cytomegalo-virus (HCMV) which is a DNA virus was tested by the following method.
Confluent monolayers of human embryonic fibroblasts in plastic dishes (diameter: 35 mm) were infected with 100 to 150 plaque forming units of HCMV. After an 1-hour adsorption period at 37° C., the cultures were overlaid with 2 ml of 0.5% agarose in Eagle's minimum essential medium containing 3% fetal calf serum and various concentrations of drugs. The cultures infected with HCMV were fixed and stained at 9 or 10 days after infection. The second agarose overlay containing appropriate concentrations of drugs was added 5 days after infection. Plaque numbers were counted by using a dissecting microscope at ×20 magnification. The antiviral activities of drugs were expressed in terms of median effective concentrations (EC50) which were defined as the drug concentrations that reduced the number of plaques to 50%.

[3] = system: Herpes simplex 1 virus (HSV-1); assay: Antiviral activity against HSV-1, CPE inhibition in Vero cells (Method 1); type: cell-based; conditions: Human alphaherpesvirus 1, 50% inhibition of CPE, about 72 hours, Neutral Red
Procedure: Antiviral activity against Herpes simplex 1 virus (HSV-1) which is a DNA virus was tested by the following method.
Vero cells (originated from kidney cells of African Green Monkey) were cultured in MEM medium to which 10% bovine embryo serum had been added. A cell suspension adjusted to a concentration of 200,000 cells/ml was spread onto 96 wells plate (COSTAR) and cultured for 24 hours so that the cells became confluent. To the medium drawn out was added HSV-1 virus, and it was infected for one hour. Then, the virus fluid was drawn out and cultured for about 72 hours in a fresh medium containing agents. The alive cells were stained with a staining solution containing Neutral Red and absorbance at a wavelength of 546 nm (A546) was measured to evaluate the cytopathic effect (CPE).
CPE inhibition (%) was calculated according to the following equation: [formula] and a quantity of sample enough for 50% inhibition of the CPE due to virus was taken as IC50 (μg/ml).

Row | Structure (SMILES) | AUC, intravenous injection [1] [ng·h/mL] | Tmax, intravenous injection [1] | AUC, oral administration [1] [ng·h/mL] | Tmax, oral administration [1] | IC50 (hepatitis B virus (HBV)) [µg/mL] | EC50 [2] [µg/mL] | IC50 [3] [µg/mL]
1 | Nc1nc2c(ncn2[C@@H]2C[C@H](COP(=O)(O)Oc3ccc(F)cc3)[C@H]2CO)c(=O)[nH]1 [Compound 65, 9-[(1R,2R,3S)-2-hydroxymethyl-3-(hydroxy(4-fluorophenoxy)phosphoryl)oxymethyl-1-cyclobutyl]-guanine] | 6373 | 10 ' | 1712 | 30 ' | 0.1 to 1 (≈ 0.228 to 2.28 µM) | 1 to 3 (≈ 2.28 to 6.83 µM) | 1.13 (≈ 2.57 µM)
2 | Nc1nc2c(ncn2[C@@H]2C[C@H](CO)[C@H]2COP(=O)(O)Oc2ccccc2)c(=O)[nH]1 [Compound 13, 9-[(1R,2R,3S)-3-hydroxymethyl-2-(hydroxy-(phenoxy)phosphoryl)oxymethyl-1-cyclobutyl]-guanine] | 2962 | 10 ' | 1122 | 30 ' | – | – | –
3 | COc1ccc(OP(=O)(O)OC[C@H]2C[C@@H](n3cnc4c(=O)[nH]c(N)nc43)[C@@H]2CO)cc1 [Compound 71, 9-[(1R,2R,3S)-2-hydroxymethyl-3-(hydroxy(4-methoxyphenoxy)phosphoryl)oxymethyl-1-cyclobutyl]-guanine] | 4393 | 10 ' | 1678 | 10 ' | 0.1 to 1 (≈ 0.222 to 2.22 µM) | 0.1 to 1 (≈ 0.222 to 2.22 µM) | 0.873 (≈ 1.93 µM)
4 | Nc1nc2c(ncn2[C@@H]2C[C@H](COP(=O)(O)Oc3ccccc3Cl)[C@H]2CO)c(=O)[nH]1 [Compound 50, 9-[(1R,2R,3S)-2-hydroxymethyl-3-(hydroxy(2-chlorophenoxy)phosphoryl)oxymethyl-1-cyclobutyl]-guanine] | 3177 | 10 ' | 1526 | 30 ' | ~0.1 (≈ 0.219 µM) | 1 to 3 (≈ 2.19 to 6.58 µM) | 1.13 (≈ 2.48 µM)
5 | Nc1nc2c(ncn2[C@@H]2C[C@H](COP(=O)(O)Oc3ccc(Cl)cc3)[C@H]2CO)c(=O)[nH]1 [Compound 56, 9-[(1R,2R,3S)-2-hydroxymethyl-3-(hydroxy(4-chlorophenoxy)phosphoryl)oxymethyl-1-cyclobutyl]-guanine] | 3167 | 10 ' | 1762 | 10 ' | 0.1 to 1 (≈ 0.219 to 2.19 µM) | 1 to 3 (≈ 2.19 to 6.58 µM) | 0.699 (≈ 1.53 µM)
6 | Nc1nc2c(ncn2[C@@H]2C[C@H](COP(=O)(O)Oc3cccc(Cl)c3)[C@H]2CO)c(=O)[nH]1 [Compound 53, 9[-(1R,2R,3S)-2-hydroxymethyl-3-(hydroxy(3-chlorophenoxy)phosphoryl)oxymethyl-1-cyclobutyl]-guanine] | 3228 | 10 ' | 1405 | 30 ' | 0.1 to 1 (≈ 0.219 to 2.19 µM) | 1 to 3 (≈ 2.19 to 6.58 µM) | 1.22 (≈ 2.68 µM)
7 | Nc1nc2c(ncn2[C@@H]2C[C@H](COP(=O)(O)Oc3ccccc3)[C@H]2CO)c(=O)[nH]1 [Compound 14, 9-[(1R,2R,3S)-2-hydroxymethyl-3-(hydroxy-(phenoxy)phosphoryl)oxymethyl-1-cyclobutyl]-guanine] | 5076 | 10 ' | 2262 | 30 ' | – | – | –
8 | Cc1ccc(OP(=O)(O)OC[C@H]2C[C@@H](n3cnc4c(=O)[nH]c(N)nc43)[C@@H]2CO)cc1 [Compound 68, 9-[(1R,2R,3S)-2-hydroxymethyl-3-(hydroxy(4-methylphenoxy)phosphoryl)oxymethyl-1-cyclobutyl]-guanine] | 4116 | 10 ' | 1754 | 30 ' | 0.1 to 1 (≈ 0.23 to 2.3 µM) | 0.1 to 1 (≈ 0.23 to 2.3 µM) | 1.26 (≈ 2.89 µM)
